Assay results reported in patent US11680082B2, “Conjugates of montelukast and peptides” (ENLITISA (SHANGHAI) PHARMACEUTICAL CO., LTD, priority 2018, dated 2023).
Counter-ions that a name gives are not always drawn. Non-standard residues stand in square brackets, D forms with d. Residues, ends and D or L forms follow the SMILES beside them. No end group written: not given here. *: point of attachment. X2 = CC(C)(O)c1ccccc1CC[C@@H](SCC1(CC(=O)*)CC1)c1cccc(/C=C/c2ccc3ccc(Cl)cc3n2)c1; Dopa = N[C@@H](Cc1ccc(O)c(O)c1)C(=O)O; Hyp = O=C(O)[C@@H]1C[C@@H](O)CN1

Tests used:
CysLTR1 = target: T1, CysLTR1 (Homo sapiens, UniProt Q9Y271); experiment: In vitro CysLTR1 FLIPR antagonist test; assay type: cell-based; settings: CYSLTR1/HEK293 cell line, Fluo-4 calcium assay
T1 construct: expressed in transfected cells; host or cells: HEK293
T1 sequence (Q9Y271 1-337): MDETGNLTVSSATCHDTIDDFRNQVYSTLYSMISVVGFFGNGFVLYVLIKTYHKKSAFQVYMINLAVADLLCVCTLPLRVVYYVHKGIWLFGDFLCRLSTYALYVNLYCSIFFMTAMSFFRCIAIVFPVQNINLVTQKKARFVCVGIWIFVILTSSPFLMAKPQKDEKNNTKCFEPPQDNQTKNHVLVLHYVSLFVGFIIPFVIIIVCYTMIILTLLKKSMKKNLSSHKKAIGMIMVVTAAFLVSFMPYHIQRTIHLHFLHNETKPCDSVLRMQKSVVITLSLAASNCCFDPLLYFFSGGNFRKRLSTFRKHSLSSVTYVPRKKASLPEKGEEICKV
Procedure: 10 different concentrations were tested in duplicate for each compound.
A CYSLTR1/HEK293 cell line was used. The cells were prepared and 20 μL of the cell suspension were added to the 384-well plates (20K/well; poly-D-Lysine protein coating plate, Greiner #781946). The plate was placed at 37° C. in a 5% CO2 incubator overnight.
A probenecid in FLIPR assay buffer was prepared from the relevant starter pack (Cat. no. F10471): A 250 mM stock solution of water-soluble probenecid was prepared by adding 1 mL of Fluo-4 Direct™ calcium assay buffer to 77 mg vials containing probenecid (Component B for Cat. nos. F10471). 10 mL of Fluo-4 Direct™ calcium assay buffer and 200 μL of the 250 mM probenecid stock solution was added to one bottle of Fluo-4 Direct™ calcium reagent (Component A). This 2× Fluo-4 Direct™ calcium reagent loading solution was sufficient for two microplates. The solution was vortexed allowed to sit for 5 minutes (protected from light), to ensure that the reagent was completely dissolved. The reagent was prepared fresh each day
All of the compounds were dissolved and serially diluted in Fluo-4 Direct™ calcium assay buffer (without probenecid). […] Fluorescence was measured using the instrument settings appropriate for excitation at 494 nm and emission at 516 nm.
The data were analysed using Prism (GraphPad Software, USA) and IC50s calculated for each compound.

[1] = test system: bleomycin-induced lung fibrosis; experiment: Idiopathic pulmonary fibrosis (IPF) model in rats (bleomycin); assay type: in vivo, SD rats; settings: score, 28 days
Procedure: 60 adult SD rats (30 male, 30 female) were purchased from Zhejiang Experimental Animal Center, China. Animals were housed at between 21 and 26° C. and at between 40 and 70% relative humidity with free access to food and water.
The rats were anaesthetized and placed on an operating table in the supine position, to expose the trachea. Bleomycin (5 mg/kg, Bleomycin Hydrochloride for Injection, Haizheng Pfizer Pharmaceutical Co., Ltd.) and saline solution were injected into the trachea through the gap between the tracheal cartilage rings.
The sham-operation group was given an equal volume of normal saline instead of bleomycin. The rats were lifted vertically immediately after administration and were rotated to allow bleomycin to evenly disperse. […]
After 28 days of administration, rats were anesthetized by intraperitoneal injection of chloral hydrate and then sacrificed. […] The lung wet weight was weighed, and the lung coefficient was calculated (lung wet weight/rat weight×1000) and are shown in Table 18 below. […]
The fixed lung tissue was embedded in paraffin and sequential 4 μm sections were stained with haematoxylin-eosin (HE) and modified Masson's trichrome. Fibrotic lung injury was assessed morphologically by semiquantitative parameters. All morphological changes were scored according to the severity of damages. […] No lesion was scored as 0. […]

ammonia induced cough = experiment: Antitussive experiment, ammonia induced cough method; assay type: in vivo, mice; settings: 10 mg/kg intragastric
Procedure: 60 mice were randomly divided into 5 groups according to their body weight: CMC-Na negative control group, dextromethorphan hydrobromide positive control group and high, medium and low doses (of Compound A, Example 1) groups. Each group contained 12 mice, 6 males and 6 females.
The test drug was administered via atomization inhalation (0.15 mL/min) for 1 min, once daily for 5 days. The positive control drug was administered once daily by intragastric administration at 10 mg/kg for 5 days.
The mice were placed in an inverted beaker 1, 2, and 4 hours after the last drug administration (either Compound A or the positive control drug). 1 mL of aqueous ammonia (25.0 to 28.0%) was placed on top of a boiling water bath and was evaporated into the beaker. The mice were stimulated by ammonia vapor for a predetermined time of 63.1, 50.1, 39.8, 31.6, 25.1, 20.0, 15.9 or 12.6 seconds. The difference in the logarithm of two adjacent stimulating times was set at 0.1, and being 1.8, 1.7, 1.6, 1.5, 1.4, 1.3, 1.2 and 1.1. The mice were then quickly moved to a bell jar. The number of coughs within 1 minute was detected with a stethoscope. Typical coughs occurring three or more times in one minute are called ‘cough’ and those occurring less than three times in one minute are ‘cough free’.
The ammonia stimulation time for the next mouse was determined according to the principle of the sequential method, i.e. if the first mouse was ‘coughing’, the next mouse was stimulated for a shorter period of time. Conversely, if the first mouse was ‘coughless’, the next mouse was stimulated for a longer period of time.
The EDT50 was defined as the ammonia stimulating time at which half mice developed a “cough” and calculated by the equation: EDT50=lg^−1c/n (c equals the […], r is the number of animals in each stimulating time group, x is the logarithm of stimulation time and n was the number of animals in each group).
Where R1=(EDT50 in treatment group/EDT50 in control group)×100%, R>130% indicates an antitussive effect. R>150% indicates a strong antitussive effect.

[2] = test system: full thickness skin wound; experiment: Acute wound model I; assay type: in vivo, C57BL/6 mice; settings: lower dose, Day 4
Procedure: 6-8 weeks old male C57BL/6 mice were supplied by Changzhou Cvens Experimental Animal Co. Ltd. Prior to any experiments being conducted, mice were housed under standardized conditions (at a constant temperature or 22±2° C., with alternating 12 hour periods of light and darkness), and were fed on a standard mouse diet with water, for about a week.
General anesthesia was induced using intraperitoneal 3% chloral hydrate (Sinopharm Chemical Reagent Co., Ltd.; 1 mL/10 g of body weight). The hair on the back was shaved by a baby hair shaver and depilated with cream. The skin area was wiped and sterilized with 75% alcohol twice.
EMS skin biopsy punch (Electron Microscopy Sciences, P.O. Box 550, 1560 Industry Road, Hatfield, Pa. 19440) with an 18 mm diameter was used to make a round wound on the midline of the back. Full thickness skin was removed, and the depth reached the fascia. The wounds left open without suture.
Different drugs were administrated topically at 50 μL/wound, once daily from Day 0 to Day 7. The model group was given same amount of normal saline.
Compound B was obtained as a powder from GL Biochem, and was prepared as described in Example 2 above). Ala-Lys-Pro-Ser-Tyr-Hyp-Hyp-Thr-DOPA-Lys (Compound 2; SEQ ID No: 4) was obtained as a powder from GL Biochem, and was prepared essentially as described in Example 2 above, but without coupling montelukast at the end. […]

[3] = test system: full thickness skin wound; experiment: Acute wound model II; assay type: in vivo, C57BL/6 mice; settings: topical once daily Day 0 to Day 7
Procedure: A similar experiment with essentially the same protocol to that described in Example 6 above was carried out on 6 to 8 week-old male C57BL/6 mice, EMS skin biopsy punch with a 12 mm diameter was used to make two round wounds on the midline of the back. The two circles were tangential to each other and the skin between the circles was cut along the upper and lower tangents. Scissors were used to trim the wound. The wound was an oval shape. […] The model group was given same amount of normal saline. [table]

[4] = test system: xylene induced ear swelling; settings: hydrogel 0.5 mg/g, 40 μL on right ear
Procedure: Essentially the same protocol to that described in Example 5 above was carried out on 15 healthy male BALB/c mice, using Compounds J (see Example 40 above) as test compound. The mice were randomly divided into 3 groups as described in Table 20 below, with 5 mice in each group.
All excipients were obtained from Sinopharm Chemical Reagent Co. Ltd. The gel was made up with water for injection.
Dexamethasone acetate cream (DEX cream; 5 mg of dexamethasone in 10 g of cream; Fuyuan Pharmaceutical Co. Ltd., Anhui, China) was used as a positive control. 40 μL of the various treatments drugs were applied to the right ear of each group.

**Q.** For `C[C@H](NC(=O)CC1(CS[C@H](CCc2ccccc2C(C)(C)O)c2cccc(/C=C/c3ccc4ccc(Cl)cc4n3)c2)CC1)C(=O)N[C@@H](CCCCN)C(=O)N1CCC[C@H]1C(=O)N[C@@H](CO)C(=O)N[C@@H](Cc1ccc(O)cc1)C(=O)N1C[C@H](O)C[C@H]1C(=O)N[C@H](C(=O)N[C@@H](Cc1ccc(O)cc1)C(=O)N1C[C@H](O)C[C@H]1C(=O)N[C@@H](CCCCN)C(=O)O)[C@@H](C)O` [Compound G, Montelukast-Ala-Lys-Pro-Ser-Tyr-Hyp-Thr-Tyr-Hyp-Lys] (X2-AKPSY[Hyp]TY[Hyp]K-OH), which IC50 (CysLTR1; repeat of Example 38) is on record?
**A.** 99.5 nM

**Q.** How did the IC50 (CysLTR1; Example 37) turn out when `C=C(C)c1ccccc1CC[C@@H](SCC1(CC(=O)O)CC1)c1cccc(/C=C/c2ccc3ccc(Cl)cc3n2)c1` [montelukast styrene] was run?
**A.** 159 nM

**Q.** Which results are given for `Cc1ccc(=O)n(-c2ccccc2)c1` [pirfenidone]?
**A.** Masson evaluation Mean ([1]; collagen deposition in pulmonary interstitium): 2.50; HE evaluation Mean ([1]; sum of degree of fibrosis and inflammation): 5.50

**Q.** For `COc1ccc2c(c1)[C@]13CCCC[C@@H]1[C@H](C2)N(C)CC3` [positive, dextromethorphan hydrobromide], which EDT50/s (ammonia induced cough; 1 h after administration) is on record?
**A.** 50.1 s

**Q.** What about the R1/% (ammonia induced cough; 1 h after administration) of the same compound?
**A.** 241.7%

**Q.** What about the EDT50/s (ammonia induced cough; 2 h after administration) of the same compound?
**A.** 44.7 s

**Q.** And the R1/% (ammonia induced cough; 2 h after administration)?
**A.** 207.3%

**Q.** What about the EDT50/s (ammonia induced cough; 4 h after administration) of the same compound?
**A.** 41.4 s

**Q.** And the R1/% (ammonia induced cough; 4 h after administration)?
**A.** 184.8%

**Q.** How did the “Hyp content in wound tissue” value [2] turn out when “Ala-Lys-Pro-Ser-Tyr-Hyp-Hyp-Thr-DOPA-Lys (AKPSY[Hyp][Hyp]T[Dopa]K; not fully specified; printed as Ala-Lys-Pro-Ser-Tyr-Hyp-Hyp-Thr-DOPA-Lys) [Compound 2]” was run?
**A.** show effects at early stage

**Q.** For “Montelukast Styrene-Ala-Lys-Pro-pSer-Tyr-Hyp-Hyp-Thr-Tyr-Lys [Compound C]”, which unhealed wound rate [3] is on record?
**A.** comparable effects on promoting the wound healing

**Q.** For “Montelukast-Ala-Lys-Pro-Ser-Tyr-Hyp-Hyp-Thr-Tyr-Hyp-Lys [Compound J]”, which “edema caused by acute inflammation (ear swelling)” value [4] is on record?
**A.** very good effect on eliminating the edema caused by acute inflammation
